From patent EP3409761B1, “CULTURE MEDIUM COMPOSITION, AND METHOD FOR CULTURING CELL OR TISSUE USING SAID COMPOSITION” (Nissan Chemical Corporation, priority 2012, dated 2014)
Starred links: 1 amine or outer side, 2 acyl side, 3 side chain; linkers in the order of their positions; H or OH if unused. Positions of bridges follow the written chain, without caps; N, C: chain ends. Non-standard residues stand in square brackets, D forms with d. Residues, ends and D or L forms follow the SMILES beside them. Chains are numbered I, II in the order given. Actinocin(9to1) = Cc1c2oc3c(C)ccc(C(=O)[*:1])c3nc-2c(C(=O)[*:2])c(N)c1=O; NMeV = CN[C@H](C(=O)O)C(C)C; Sar = CNCC(=O)O

Key:
Type in all cases: cell-based
[1] = system: human cervical cancer cell line HeLa; assay: Comparison with single layer culture method using agent for inducing apoptosis; conditions: day 4
Experimental: This aqueous solution was sterilized at 121°C for 20 min in an autoclave. […] Each plate was cultured by being stood still in a CO2 incubator (37°C, 5% CO2). […] To the culture medium on day 4 was added an ATP reagent (150 µL) (CellTiter-Glo (registered trade mark) Luminescent Cell Viability Assay, manufactured by Promega) to give a suspension, which was stood for about 10 min at room temperature, and the luminescence intensity (RLU value) was measured by FlexStation3 (manufactured by Molecular Devices), and the number of viable cells was measured by subtracting the luminescence value of the medium alone. For WST-8 measurement, a WST-8 solution (manufactured by DOJINDO Laboratories, 15 µL) was added, the mixture was incubated at 37°C for 100 min, the absorbance at 450 nm was measured by an absorbance spectrometer (manufactured by Molecular Devices, SPECTRA MAX 190), and the number of viable cells was measured by subtracting the absorbance of the medium alone.

[2] = system: human cervical cancer cell line HeLa; assay: Comparison with single layer culture method in cell proliferation test using anticancer drug; conditions: day 4
Experimental: This aqueous solution was sterilized at 121°C for 20 min in an autoclave. […] Each plate was cultured by being stood still in a CO2 incubator (37°C, 5% CO2). […] The anticancer drug used was Adriamycin (manufactured by WAKO), Paclitaxel (manufactured by WAKO) or Mitomycin C (manufactured by WAKO). To the culture medium on day 4 was added an ATP reagent (150 µL) (CellTiter-Glo (registered trade mark) Luminescent Cell Viability Assay, manufactured by Promega) to give a suspension, which was stood for about 10 min at room temperature, and the luminescence intensity (RLU value) was measured by FlexStation3 (manufactured by Molecular Devices), and the number of viable cells was measured by subtracting the luminescence value of the medium alone. For WST-8 measurement, a WST-8 solution (manufactured by DOJINDO Laboratories, 15 µL) was added, the mixture was incubated at 37°C for 100 min, the absorbance at 450 nm was measured by an absorbance spectrometer (manufactured by Molecular Devices, SPECTRA MAX 190), and the number of viable cells was measured by subtracting the absorbance of the medium alone.

[3] = system: human cervical cancer cell line HeLa; assay: Cell proliferation test using various anticancer drugs; conditions: DAG 0.030% medium; for cell density: 5 days later
Experimental: This aqueous solution was sterilized at 121°C for 20 min in an autoclave. […] The anticancer drug used was Adriamycin (manufactured by WAKO), Paclitaxel (manufactured by WAKO) or Mitomycin C (manufactured by WAKO).
Successively, this plate was cultured by being stood still in a CO2 incubator (37°C, 5% CO2) for 7 days. After culturing for 3, 5, 7 days, to the culture medium was added a WST-8 solution (manufactured by DOJINDO Laboratories, 20 µL), and the mixture was incubated at 37°C for 100 min. The absorbance at 450 nm was measured by an absorbance spectrometer (manufactured by Molecular Devices, SPECTRA MAX 190), and the number of viable cells was measured by subtracting the absorbance of the medium alone. The culture medium containing the cells after 5 days of culture was stirred with a pipette and the obtained stirred solution (20 µL) was mixed with Trypan Blue stain 0.4% (manufactured by Invitrogen, 20 µL) and the cell density was measured under a microscope.

[4] = agent 1 µM, deacylated gellan gum addition group (0.015%)
[5] = agent 1 µM, single layer culture group
[6] = agent 10 µM, deacylated gellan gum addition group (0.015%)
[7] = agent 10 µM, single layer culture group
[8] = agent 0.2 µM, deacylated gellan gum addition group (0.015%)
[9] = agent 0.2 µM, single layer culture group
[10] = agent 2 µM, deacylated gellan gum addition group (0.015%)
[11] = agent 2 µM, single layer culture group
[12] = drug 0.001 µM, deacylated gellan gum addition group (0.015%)
[13] = drug 0.001 µM, single layer culture group
[14] = drug 0.01 µM, deacylated gellan gum addition group (0.015%)
[15] = drug 0.01 µM, single layer culture group
[16] = drug 0.1 µM, deacylated gellan gum addition group (0.015%)
[17] = drug 0.1 µM, single layer culture group
[18] = drug 1 µM, deacylated gellan gum addition group (0.015%)
[19] = drug 1 µM, single layer culture group

In the case of `Cc1c2oc3c(C)ccc(C(=O)N[C@@H]4C(=O)N[C@H](C(C)C)C(=O)N5CCC[C@H]5C(=O)N(C)CC(=O)N(C)[C@@H](C(C)C)C(=O)O[C@@H]4C)c3nc-2c(C(=O)N[C@@H]2C(=O)N[C@H](C(C)C)C(=O)N3CCC[C@H]3C(=O)N(C)CC(=O)N(C)[C@@H](C(C)C)C(=O)O[C@@H]2C)c(N)c1=O` [Actinomycin D] (I: T[dV]P[Sar][NMeV] / II: T[dV]P[Sar][NMeV]; ester I:1-I:C, II:1-II:C; linker I:N-II:N via Actinocin(9to1)), the “% Control value of the RLU value (ATP measurement)” value (from here on “% Control value of the RLU value”) [1, 4] was 4 % Control, the “% Control value of the absorbance at 450 nm (WST-8 measurement)” value (shortened to “% Control value of the absorbance”) [1, 4] was 3 % Control and the “% Control value of the RLU value” value [1, 5] was 2 % Control. The “% Control value of the absorbance” value [1, 5] was 2 % Control, the “% Control value of the RLU value” value [1, 6] was 6 % Control and the “% Control value of the absorbance” value [1, 6] was 12 % Control. The “% Control value of the RLU value” value [1, 7] was 2 % Control and the “% Control value of the absorbance” value [1, 7] was 4 % Control.
For `C[C@@H]1C[C@H]2[C@@H]3CCC4=CC(=O)C=C[C@]4(C)[C@@]3(F)[C@@H](O)C[C@]2(C)[C@@]1(O)C(=O)CO` [Dexamethasone], the “% Control value of the RLU value” value [1, 4] was 232 % Control, the “% Control value of the absorbance” value [1, 4] was 184 % Control and the “% Control value of the absorbance” value [1, 5] was 89 % Control. For the same compound, the “% Control value of the RLU value” value [1, 6] was 241 % Control, the “% Control value of the absorbance” value [1, 6] was 173 % Control and the “% Control value of the RLU value” value [1, 7] was 116 % Control. For the same compound, the “% Control value of the absorbance” value [1, 7] was 92 % Control.
In the case of `CC[C@@]1(O)C(=O)OCc2c1cc1n(c2=O)Cc2cc3ccccc3nc2-1` [Camptothecin], the “% Control value of the RLU value” value [1, 8] was 27 % Control, the “% Control value of the absorbance” value [1, 8] was 24 % Control and the “% Control value of the RLU value” value [1, 9] was 63 % Control. The “% Control value of the absorbance” value [1, 9] was 68 % Control, the “% Control value of the RLU value” value [1, 10] was 11 % Control and the “% Control value of the absorbance” value [1, 10] was 7 % Control. For the same compound, the “% Control value of the RLU value” value [1, 11] was 44 % Control and the “% Control value of the absorbance” value [1, 11] was 28 % Control.
In the case of `COc1cccc2c1C(=O)c1c(O)c3c(c(O)c1C2=O)C[C@@](O)(C(=O)CO)C[C@@H]3O[C@H]1C[C@H](N)[C@H](O)[C@H](C)O1` [Adriamycin], the “% Control value of the RLU value” value [2, 12] was 96 % Control, the “% Control value of the absorbance” value [2, 12] was 105 % Control and the “% Control value of the RLU value” value [2, 13] was 97 % Control. For the same compound, the “% Control value of the absorbance” value [2, 13] was 109 % Control, the “% Control value of the RLU value” value [2, 14] was 81 % Control and the “% Control value of the absorbance” value [2, 14] was 86 % Control. The “% Control value of the RLU value” value [2, 15] was 97 % Control, the “% Control value of the absorbance” value [2, 15] was 107 % Control and the “% Control value of the RLU value” value [2, 16] was 41 % Control. For the same compound, the “% Control value of the absorbance” value [2, 16] was 36 % Control, the “% Control value of the RLU value” value [2, 17] was 65 % Control and the “% Control value of the absorbance” value [2, 17] was 74 % Control. The “% Control value of the RLU value” value [2, 18] was 15 % Control, the “% Control value of the absorbance” value [2, 18] was 4 % Control and the “% Control value of the RLU value” value [2, 19] was 5 % Control. For the same compound, the “% Control value of the absorbance” value [2, 19] was 6 % Control, the “% Control value of the RLU value” value [1, 4] was 5 % Control and the “% Control value of the absorbance” value [1, 4] was 3 % Control. For the same compound, the “% Control value of the RLU value” value [1, 5] was 3 % Control, the “% Control value of the absorbance” value [1, 5] was 3 % Control and the cell density ([3]; drug 0.001 µM) was 5.1 10^4 cells/mL. For the same compound, the “cell number (absorbance at 450 nm, WST-8)” value (from here on “cell number”) ([3]; drug 0.001 µM, day 3) was 0.237, the “cell number” value ([3]; drug 0.001 µM, day 5) was 0.246 and the “cell number” value ([3]; drug 0.001 µM, day 7) was 0.184. The cell density ([3]; drug 0.01 µM) was 2.6 10^4 cells/mL, the “cell number” value ([3]; drug 0.01 µM, day 3) was 0.230 and the “cell number” value ([3]; drug 0.01 µM, day 5) was 0.098. For the same compound, the “cell number” value ([3]; drug 0.01 µM, day 7) was 0.068, the cell density ([3]; drug 0.1 µM) was 1.7 10^4 cells/mL and the “cell number” value ([3]; drug 0.1 µM, day 3) was 0.037. The “cell number” value ([3]; drug 0.1 µM, day 5) was 0.005, the “cell number” value ([3]; drug 0.1 µM, day 7) was less than 0 and the cell density ([3]; drug 1 µM) was 0.6 10^4 cells/mL. For the same compound, the “cell number” value ([3]; drug 1 µM, day 3) was less than 0, the “cell number” value ([3]; drug 1 µM, day 5) was less than 0 and the “cell number” value ([3]; drug 1 µM, day 7) was less than 0.
